This is an account of results in US8653110B2, “Active compound combination comprising azadirachtin and a substituted enaminocarbonyl compound” (Bayer CropScience AG, priority 2010, dated 2014).

In the experiment the test system is Cyclocephala immaculata. Nature of the experiment: Watering test with beetle larvae (Example 2). It counts as in vivo. The note with it: L3 larvae, watering, (I-1) 600, azadirachtin 60, (I-1)+azadirachtin 600+60, trichlorfon 4529 g of active compound/ha. The source says: Beetle larvae (grubs) are important lawn pests. On the one hand, they feed on grass roots, damaging them directly, on the other hand they are a favoured food for birds which, searching for grubs, destroy the turf. For treatment against grubs, infested lawns are usually watered with insecticidal compositions. This type of treatment is emulated in the laboratory by Example 2.
To prepare a suitable active compound preparation, a commercial formulation of active compound or active compound combination is mixed with water until the desired concentration is reached. Pots with soil substrate were watered with the following active compound preparations: • 1. untreated • 2. compound (I-1) as SL 200, 600 g of active compound/ha • 3. azadirachtin, 60 g of active compound/ha • 4. compound (I-1) as SL 200+azadirachtin, 600+60 g of active compound/ha • 5. positive control: trichlorfon 4529 g of active compound/ha
L3 larvae of Cyclocephala immaculata were placed onto the pots. After 1, 4, 7, 14 days, the survival rate was determined, and this was used to calculate the efficacy of the compositions. 100% means that all grubs were killed, 0% means no activity.

With `COP(=O)(OC)C(O)C(Cl)(Cl)Cl` (stereo not shown) [trichlorfon], under “day 1”, the “Effect on day 1 in %” value turned out to be 0%. For the same compound, the “Effect on day 4 in %” value (day 4) was found to be 17%. Besides, the “Effect on day 7 in %” value (day 7) worked out at 29%. Besides, the “Effect on day 14 in %” value (day 14) is on record as 50%.
